Values of other authors as cited in US20070148194A1, “Novel nanoemulsion formulations” (priority 2005, published 2007).

Tested on: HIV
Details: in vitro; read-out: anti-HIV activity in vitro, IC50

## CC(C)(C)NC(=O)[C@@H]1C[C@@H]2CCCC[C@@H]2CN1C[C@@H](O)[C@H](Cc1ccccc1)NC(=O)[C@H](CC(N)=O)NC(=O)c1ccc2ccccc2n1 [SQV, Saquinavir]
  IC50: 0.02 µM
